Each molecule was assayed against T1, Recombinant Human ENPP-2/Autotaxin (Homo sapiens, UniProt Q13822) (assay: LysoPLD activity measurement (autotaxin enzyme inhibition, choline release, TOOS reagent)). Details: LysoPLD inhibitory activity; substrate 14:0 LysoPC; absorbance at 555 nm.
T1 construct: purchased R&D systems 5255-EN
Format: biochemical
Summary of the method: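 Autotaxin lysoPLD activity was read as choline released from 14:0 LysoPC, detected by TOOS reagent absorbance. Compound was preincubated 30 min, then substrate diluted to 300 μM was added and the reaction ran 90 minutes at 37° C. Controls contained 1% DMSO.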

SMILES | IC50 [nM]
C[C@@H]1CN(C(=O)Cc2ccc(-n3c(=O)n(C4(c5cccc(C(=O)O)c5)CC4)c4ccc(Cl)cc43)cc2)CCO1 [Example 175, (R)-3-(1-(5-chloro-3-(4-(2-(2-methylmorpholino)-2-oxoethyl)phenyl)-2-oxo-2,3-dihydro-1H-benzo[d]imidazol-1-yl)cyclopropyl)benzoic acid] | < 10
C[C@H]1CN(C(=O)Cc2ccc(-n3c(=O)n(C4(c5cccc(C(=O)O)c5)CC4)c4ccc(Cl)cc43)cc2)CCO1 [Example 176, (S)-3-(1-(5-chloro-3-(4-(2-(2-methylmorpholino)-2-oxoethyl)phenyl)-2-oxo-2,3-dihydro-1H-benzo[d]imidazol-1-yl)cyclopropyl)benzoic acid] | 10 to 100
C[C@H]1COCCN1C(=O)Cc1ccc(-n2c(=O)n(C3(c4cccc(C(=O)O)c4)CC3)c3ccc(Cl)cc32)cc1 [Example 177, (S)-3-(1-(5-chloro-3-(4-(2-(3-methylmorpholino)-2-oxoethyl)phenyl)-2-oxo-2,3-dihydro-1H-benzo[d]imidazol-1-yl)cyclopropyl)benzoic acid] | 10 to 100
C[C@@H]1COCCN1C(=O)Cc1ccc(-n2c(=O)n(C3(c4cccc(C(=O)O)c4)CC3)c3ccc(Cl)cc32)cc1 [Example 178, (R)-3-(1-(5-chloro-3-(4-(2-(3-methylmorpholino)-2-oxoethyl)phenyl)-2-oxo-2,3-dihydro-1H-benzo[d]imidazol-1-yl)cyclopropyl)benzoic acid] | < 10
O=C(O)c1cccc(C2(n3c(=O)n(-c4ccc(C56CC7CC(CC(C7)C5)C6)cc4)c4cc(Cl)ccc43)CC2)c1 [Example 179, 3-(1-(3-(4-((3r,5r,7r)-adamantan-1-yl)phenyl)-5-chloro-2-oxo-2,3-dihydro-1H-benzo[d]imidazol-1-yl)cyclopropyl)benzoic acid] | 100 to 1000
CS(=O)(=O)c1ccc(-n2c(=O)n(C3(c4cccc(C(=O)O)c4)CC3)c3ccc(Cl)cc32)cc1 [Example 180, 3-(1-(5-chloro-3-(4-(methylsulfonyl)phenyl)-2-oxo-2,3-dihydro-1H-benzo[d]imidazol-1-yl)cyclopropyl)benzoic acid] | < 10
O=C(O)c1cccc(C2(n3c(=O)n(-c4ccc(N5CC6CC5CO6)cc4)c4cc(Cl)ccc43)CC2)c1 (stereo not drawn) [Example 181, 3-(1-(3-(4-(2-oxa-5-azabicyclo[2.2.1]heptan-5-yl)phenyl)-5-chloro-2-oxo-2,3-dihydro-1H-benzo[d]imidazol-1-yl)cyclopropyl)benzoic acid] | < 10
O=C(O)c1cccc(C2(n3c(=O)n(-c4ccc(N5CC6CCC(C5)O6)cc4)c4cc(Cl)ccc43)CC2)c1 [Example 182, 3-(1-(3-(4-(8-oxa-3-azabicyclo[3.2.1]octan-3-yl)phenyl)-5-chloro-2-oxo-2,3-dihydro-1H-benzo[d]imidazol-1-yl)cyclopropyl)benzoic acid] | < 10
O=C(O)c1cccc(C2(n3c(=O)n(-c4ccc(N5CCCOCC5)cc4)c4cc(Cl)ccc43)CC2)c1 [Example 183, 3-(1-(3-(4-(1,4-oxazepan-4-yl)phenyl)-5-chloro-2-oxo-2,3-dihydro-1H-benzo[d]imidazol-1-yl)cyclopropyl)benzoic acid] | < 10
O=C(O)c1cccc(C2(n3c(=O)n(-c4ccc(N5CC6(CCC6)C5)cc4)c4cc(Cl)ccc43)CC2)c1 [Example 184, 3-(1-(3-(4-(2-azaspiro[3.3]heptan-2-yl)phenyl)-5-chloro-2-oxo-2,3-dihydro-1H-benzo[d]imidazol-1-yl)cyclopropyl)benzoic acid] | 10 to 100
O=C(O)c1cccc(C2(n3c(=O)n(-c4ccc(N5CC(F)(F)C5)cc4)c4cc(Cl)ccc43)CC2)c1 [Example 185, 3-(1-(5-chloro-3-(4-(3,3-difluoroazetidin-1-yl)phenyl)-2-oxo-2,3-dihydro-1H-benzo[d]imidazol-1-yl)cyclopropyl)benzoic acid] | < 10
CC(=O)N1CCC2(CC1)CN(c1ccc(-n3c(=O)n(C4(c5cccc(C(=O)O)c5)CC4)c4ccc(Cl)cc43)cc1)C2 [Example 186, 3-(1-(3-(4-(7-acetyl-2,7-diazaspiro[3.5]nonan-2-yl)phenyl)-5-chloro-2-oxo-2,3-dihydro-1H-benzo[d]imidazol-1-yl)cyclopropyl)benzoic acid] | < 10
O=C(O)c1cc(F)cc(C2(n3c(=O)n(-c4ccc(N5CCOCC5)cc4)c4cc(Cl)ccc43)CC2)c1 [Example 187, 3-(1-(5-chloro-3-(4-morpholinophenyl)-2-oxo-2,3-dihydro-1H-benzo[d]imidazol-1-yl)cyclopropyl)-5-fluorobenzoic acid] | < 10
CN(C)c1ccc(-n2c(=O)n(C3(c4cc(F)cc(C(=O)O)c4)CC3)c3ccc(Cl)cc32)cc1 [Example 188, 3-(1-(5-chloro-3-(4-(dimethylamino)phenyl)-2-oxo-2,3-dihydro-1H-benzo[d]imidazol-1-yl)cyclopropyl)-5-fluorobenzoic acid] | < 10
CN(C)C(=O)Cc1ccc(-n2c(=O)n(C3(c4cc(F)cc(C(=O)O)c4)CC3)c3ccc(Cl)cc32)cc1 [Example 189, 3-(1-(5-chloro-3-(4-(2-(dimethylamino)-2-oxoethyl)phenyl)-2-oxo-2,3-dihydro-1H-benzo[d]imidazol-1-yl)cyclopropyl)-5-fluorobenzoic acid] | < 10
O=C(O)c1cc(F)cc(C2(n3c(=O)n(-c4ccc(C5CCOCC5)cc4)c4cc(Cl)ccc43)CC2)c1 [Example 190, 3-(1-(5-chloro-2-oxo-3-(4-(tetrahydro-2H-pyran-4-yl)phenyl)-2,3-dihydro-1H-benzo[d]imidazol-1-yl)cyclopropyl)-5-fluorobenzoic] | 10 to 100
O=C(O)c1cc(F)cc(C2(n3c(=O)n(-c4ccc(N5CC6(COC6)C5)cc4)c4cc(Cl)ccc43)CC2)c1 [Example 191, 3-(1-(3-(4-(2-oxa-6-azaspiro[3.3]heptan-6-yl)phenyl)-5-chloro-2-oxo-2,3-dihydro-1H-benzo[d]imidazol-1-yl)cyclopropyl)-5-fluorobenzoic acid] | < 10
O=C(O)c1cc(F)cc(C2(n3c(=O)n(-c4ccc(N5CC6CCC(C5)O6)cc4)c4cc(Cl)ccc43)CC2)c1 [Example 192, 3-(1-(3-(4-(8-oxa-3-azabicyclo[3.2.1]octan-3-yl)phenyl)-5-chloro-2-oxo-2,3-dihydro-1H-benzo[d]imidazol-1-yl)cyclopropyl)-5-fluorobenzoic acid] | < 10
O=C(O)c1cc(F)cc(C2(n3c(=O)n(-c4ccc(N5CC6(CCOCC6)C5)cc4)c4cc(Cl)ccc43)CC2)c1 [Example 193, 3-(1-(3-(4-(7-oxa-2-azaspiro[3.5]nonan-2-yl)phenyl)-5-chloro-2-oxo-2,3-dihydro-1H-benzo[d]imidazol-1-yl)cyclopropyl)-5-fluorobenzoic acid] | < 10
O=C(O)c1cc(F)cc(C2(n3c(=O)n(-c4ccc(N5CC(F)(F)C5)cc4)c4cc(Cl)ccc43)CC2)c1 [Example 194, 3-(1-(5-chloro-3-(4-(3,3-difluoroazetidin-1-yl)phenyl)-2-oxo-2,3-dihydro-1H-benzo[d]imidazol-1-yl)cyclopropyl)-5-fluorobenzoic acid] | < 10
CC(C)(C)OC(=O)N1CCC2(CC1)CN(c1ccc(-n3c(=O)n(C4(c5cc(F)cc(C(=O)O)c5)CC4)c4ccc(Cl)cc43)cc1)C2 [Example 195, 3-(1-(3-(4-(7-(tert-butoxycarbonyl)-2,7-diazaspiro[3.5]nonan-2-yl)phenyl)-5-chloro-2-oxo-2,3-dihydro-1H-benzo[d]imidazol-1-yl)cyclopropyl)-5-fluorobenzoic acid] | 10 to 100

From US20260265265A1, “NOVEL BENZIMIDAZOLONE DERIVATIVE COMPOUND AS AUTOTAXIN INHIBITOR” (LG CHEM, LTD., priority 2023, published 2026)
